Values joined by “and” are separate entries in the source; they are usually repeats but may differ in a detail not shown here. Equal values may be shown once.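 Five concentrations, 48 hours, 96-well plates. GI50 is the concentration that inhibits growth by half. TGI marks complete inhibition of growth.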
Assays:
Assay in all cases: inhibition of tumour cell growth, NCI panel, 48 h
HT29 colon = tested on: HT29 colon
IGROV1 ovarian = tested on: IGROV1 ovarian
M14 melanoma = tested on: M14 melanoma
OVCAR-4 ovarian = tested on: OVCAR-4 ovarian
SF-295 CNS = tested on: SF-295 CNS
SF-539 CNS = tested on: SF-539 CNS
SN12C renal = tested on: SN12C renal
T-47D breast = tested on: T-47D breast

SMILES	GI50 (HT29 colon)	TGI (HT29 colon)	GI50 (IGROV1 ovarian)	TGI (IGROV1 ovarian)	GI50 (M14 melanoma)	TGI (M14 melanoma)	GI50 (OVCAR-4 ovarian)	TGI (OVCAR-4 ovarian)	GI50 (SF-295 CNS)	TGI (SF-295 CNS)	GI50 (SF-539 CNS)	TGI (SF-539 CNS)	GI50 (SN12C renal)	TGI (SN12C renal)	GI50 (T-47D breast)	TGI (T-47D breast)
CCC(=O)Nc1ccccc1C#C/C=C\C#Cc1ccccc1C(F)(F)F	5.94 µM	> 50 µM	3.39 µM	> 18.9 µM	2.09 µM	23.2 µM	14.6 µM	> 50 µM	1 µM	5.34 µM	4.2 µM	13.1 µM	2.22 µM	> 50 µM	6.04 µM	> 38.9 µM
Cc1cc(C(=O)NC(CCC(=O)O)C(=O)O)sc1CCC1CNc2nc(N)[nH]c(=O)c2C1 (centres undefined)	< 0.0198 µM and 0.0322 µM	> 100 µM	0.0464 µM and 0.192 µM	> 100 µM	< 0.0192 µM and 0.0501 µM	> 100 µM	0.121 µM and 0.167 µM	> 100 µM	0.0537 µM and 0.0973 µM	> 100 µM	0.0383 µM and 0.0521 µM	> 100 µM	0.0315 µM and 0.0482 µM	> 100 µM		> 100 µM
COc1cc(N2CCN(C(C)C)CC2)ccc1Nc1nc(Nc2cccc(F)c2C(=O)O)c2cc[nH]c2n1	> 25 µM	> 25 µM	> 25 µM	> 25 µM	> 25 µM	> 25 µM	> 25 µM	> 25 µM	> 25 µM	> 25 µM	> 25 µM	> 25 µM	> 25 µM	> 25 µM	> 25 µM	> 25 µM
COc1cc2ncnc(Nc3ccc4c(cnn4Cc4ccccc4)c3)c2cc1OC	8.77 µM	> 25 µM	4.83 µM	> 25 µM	> 25 µM	> 25 µM	> 25 µM	> 25 µM	> 20.2 µM	> 25 µM	> 15.8 µM	> 25 µM	> 17 µM	> 25 µM	2.16 µM	> 25 µM
CN1CCN(c2nc(NCCCNc3ccnc4cc(Cl)ccc34)c3ccccc3n2)CC1	3.33 µM	9.87 µM	4.52 µM	18.9 µM	1.89 µM	3.77 µM	2.69 µM	12.5 µM	2.05 µM	4.92 µM	1.74 µM	3.5 µM	4.97 µM	18 µM	2.39 µM	6.73 µM
CCCCc1n(Cc2ccc3ccccc3c2)cc[n+]1Cc1ccc2ccccc2c1			0.732 µM	2.26 µM					1.3 µM	2.65 µM	1.4 µM	2.74 µM	1.09 µM	2.43 µM		
C[C@]1(Cn2ccnn2)C(C(=O)O)N2C(=O)CC2S1(=O)=O (some centres undefined)	> 100 µM	> 100 µM	> 100 µM	> 100 µM	> 100 µM	> 100 µM	> 100 µM	> 100 µM	> 100 µM	> 100 µM	> 100 µM	> 100 µM	> 100 µM	> 100 µM	> 100 µM	> 100 µM
Cc1ccc(C2=C(c3ccc(C)cc3)C3(c4ccc(C)cc4)C4C(=O)c5ccccc5C(=O)C4C2(c2ccc(C)cc2)S3=O)cc1 (centres undefined)	> 100 µM	> 100 µM	> 100 µM	> 100 µM	> 100 µM	> 100 µM	45 µM	> 100 µM	> 100 µM	> 100 µM	> 100 µM	> 100 µM	> 100 µM	> 100 µM	72.4 µM	> 100 µM
Cc1[nH]c(-c2nc3ccccc3[nH]2)c(C)c1C(=O)NC(C)C1CCCCC1 (centres undefined)	4.89 µM	38.2 µM	6.16 µM	23.9 µM	3.28 µM	17.8 µM	12.4 µM	26.8 µM	4.8 µM	16.8 µM	6.7 µM	19.6 µM	10.5 µM	26 µM	12.4 µM	39.2 µM
O=c1c(Br)cc2c(-c3ccccc3)c3cc(Br)c(O)c(Br)c3oc-2c1Br		39.4 µM		> 100 µM		> 100 µM		63.7 µM		> 100 µM		> 100 µM		> 100 µM		> 100 µM
COc1ccc2c(Cl)cc(NC(=O)Nc3c(C)cccc3C)nc2c1	33.9 µM	> 100 µM	21.9 µM	> 100 µM	31.8 µM	> 100 µM			4.31 µM	43.9 µM	19.8 µM	46.3 µM	15.6 µM	> 100 µM	22.5 µM	> 100 µM
CCCCNC(=O)c1cc(NCc2cc(O)ccc2O)ccc1O	21.5 µM	46.8 µM	26.1 µM	62.7 µM	19.2 µM	43.7 µM	12.3 µM	24.8 µM	46.2 µM	> 100 µM	4.16 µM	17.1 µM	13.6 µM	29.5 µM	6.39 µM	39.1 µM
C=CC/C(=C\COP(=O)(OCc1ccc([N+](=O)[O-])o1)N(C)CCCCCl)CC/C=C(\C)CCC=C(C)C (centres undefined)	11.6 µM	25.5 µM			4.04 µM	18.2 µM	17.2 µM	39.3 µM	0.0171 µM	3.21 µM	22.5 µM	39.4 µM	13.6 µM	26.4 µM	20.6 µM	53.9 µM
N#Cc1c(N)nc(N)nc1N[C@H](c1nc2c(F)ccc(Cl)c2c(=O)n1-c1cccnc1)C1CC1	4.53 µM	25.8 µM	1.22 µM	5.31 µM	13.6 µM	41.8 µM	19.4 µM	87.1 µM	1.18 µM	13.2 µM	3.83 µM	21 µM	10.8 µM	> 100 µM	1.19 µM	7.96 µM
CN(C)CC(C(=O)Cc1ccccc1)c1ccccc1 (centres undefined)			11.6 µM	26.4 µM	2.34 µM	4.97 µM	2.35 µM	5.87 µM	11.3 µM	27.8 µM	1.87 µM	3.99 µM	3.04 µM	11 µM	1.11 µM	4.91 µM
COc1c(-c2ccc(O)c(O)c2)oc2c(O)c(O)cc(O)c2c1=O		39.8 µM		70.7 µM				> 100 µM		> 100 µM		> 100 µM		31 µM		> 100 µM
C=C(CC(=O)O)C(=O)O (tested in a mixture with another compound)	> 50 µg/mL	> 50 µg/mL	> 50 µg/mL	> 50 µg/mL	> 50 µg/mL	> 50 µg/mL			> 50 µg/mL	> 50 µg/mL	> 50 µg/mL	> 50 µg/mL	> 50 µg/mL	> 50 µg/mL	> 50 µg/mL	> 50 µg/mL
Cn1c2ccccc2c2c3[nH][nH]c(=O)c3c3c4ccccc4[nH]c3c21	3.13 µM	50.8 µM			3.05 µM	10 µM	2.6 µM	13.2 µM	3.14 µM	10.9 µM	1.22 µM	3.12 µM	2.33 µM	> 100 µM	2.05 µM	13.4 µM
CC(/C=C/c1ccccc1)=N\NC(N)=S		> 100 µM		> 100 µM		88.4 µM				61.2 µM		94.5 µM		> 100 µM		49.1 µM
C[C@]12CC[C@H]3[C@@H](C[C@@H]4SC(Nc5ccccc5)=N[C@@]45CC(O)CC[C@]35C)[C@@H]1CCC2O (some centres undefined)			2.78 µM	7.85 µM	1.84 µM	4.27 µM	3.13 µM	15.4 µM	1.06 µM	2.98 µM	1.19 µM	2.62 µM	1.65 µM	3.28 µM	2.41 µM	7.59 µM
O=C1Nc2ccccc2/C1=C\c1nc(C2CCN(S(=O)(=O)c3ccc(F)cc3)CC2)n2ccccc12	> 100 µM	> 100 µM	2.69 µM	> 100 µM	> 100 µM	> 100 µM			2.25 µM	11.2 µM	1.39 µM	3.07 µM	3.05 µM	> 100 µM	4.57 µM	> 100 µM
OCCNCCCOc1ccc2ncnc(Nc3ccc(Oc4cccc(C(F)(F)F)c4)c(Cl)c3)c2c1			0.584 µM	2.14 µM					1.79 µM	3.24 µM	1.64 µM	3.07 µM	1.43 µM	2.83 µM		
O=C(O)CCc1c2ccc(=O)c(O)c-2oc2c(O)c(O)ccc12		> 100 µM		> 100 µM		> 100 µM		> 100 µM		82.5 µM				34.8 µM		> 100 µM
Oc1ccc(CCNCc2cc3c(cc2Br)OCO3)cc1		> 100 µM		> 100 µM		> 100 µM				> 100 µM		> 100 µM		> 100 µM		> 100 µM
Cc1cc(N2CCCC2)nc(NCc2cc(Nc3ccnc4cc(Cl)ccc34)ccc2F)n1	0.286 µM	1.23 µM			1.37 µM	2.85 µM			1.16 µM	2.53 µM	1.55 µM	3.11 µM				
Cc1ccc(C2=C(c3ccccc3)C(c3ccccc3)Oc3ccc(C)cc32)cc1 (centres undefined)			2.49 µM	7.1 µM	1.56 µM	3.05 µM	2.27 µM	7.44 µM	3.66 µM	13.8 µM	6.29 µM	20 µM	17.3 µM	34.3 µM		

Source: PubChem BioAssay (NCI)
